Test results from patent US8017772B2, “Substituted tetrahydropyrrolopyrazine compounds and the use thereof in the treatment and/or inhibition of pain” (Gruenenthal GmbH, priority 2006, dated 2011).

These molecules were tested against T1, hKCNQ2/3 (Homo sapiens, UniProt O43525+O43526) (assay: Voltage clamp (patch-clamp) measurements on stably transfected hKCNQ2/3 CHO-K1 cell line). Conditions: potential −40 mV, relative to retigabine (RG = 1).
Assay type: cell-based
Description: Voltage Clamp Measurements
In order to confirm a KCNQ2/3-agonistic action of the substances electrophysiologically, patch-clamp measurements (Hamill et al., 1981) were carried out in voltage clamp mode on a stably transfected hKCNQ2/3 CHO-K1 cell line. After formation of the gigaseal, the cells were first clamped at a holding potential of −60 mV. Thereafter, depolarizing voltage jumps were applied up to a potential of +20 mV (increment: 20 mV, duration: 1 second) in order to confirm the functional expression of KCNQ2/3-typical currents. The testing of the substances was carried out at a potential of −40 mV. The increase in current induced by retigabine (10 at −40 mV was first recorded as a positive control on each cell. After complete washing out of the retigabine effect (duration: 80 s), the test substance was applied. • See: Hamill O P, Marty A, Neher E, Sakmann B, Sigworth F J.: Improved patch-clamp techniques for high-resolution current recording from cells and cell-free membrane patches. Pflugers Arch. 1981 August; 391(2):85-100.

MAN rel eff @ 10 μM [RG = 1] | SMILES
−0.46 | O=C(CC(=O)N1CCn2cccc2C1c1ccccc1)Nc1cccc(C(F)(F)F)c1 (centres unmarked) [Example 90]
0.11 | CC(NC(=O)CCC(=O)N1CCn2cccc2C1c1cccs1)c1cccc(C(F)(F)F)c1 (centres unmarked) [Example 82, 4-oxo-4-(1-(thiophen-2-yl)-3,4-dihydropyrrolo[1,2-a]pyrazin-2(1H)-yl)-N-(1-(3-(trifluoromethyl)phenyl)ethyl)butanamide]
0.25 | CC(NC(=O)CCC(=O)N1CCn2cccc2C1c1ccccc1)c1cccc(C(F)(F)F)c1 (centres unmarked) [Example 81, 4-oxo-4-(1-phenyl-3,4-dihydropyrrolo[1,2-a]pyrazin-2(1H)-yl)-N-(1-(3-(trifluoromethyl)phenyl)ethyl)butanamide]

The molecules below were run against T1, hKCNQ2/3 (assay: Fluorescence assay using a voltage sensitive dye (BMG)). Conditions: CHO-K1 cells expressing KCNQ2/3.
Assay type: cell-based
Description: 11. Biological Data 12. Fluorescence Assay Using a Voltage Sensitive Dye
Human CHO-K1 cells expressing KCNQ2/3 channels are cultivated adherently at 37° C., 5% CO2 and 95% humidity in cell culture bottles (e.g. 80 cm^2 TC flasks, Nunc) with MEM Alpha Medium (1×, liquid, Invitrogen, #22571), 10% fetal calf serum (FCS) (Invitrogen, #10270-106, heat-inactivated) and the necessary selection antibiotics.
Before being sown out for the measurements, the cells are washed with a 1×DPBS buffer without Ca^2+/Mg^2+ (e.g. Invitrogen, #14190-094) and detached from the bottom of the culture vessel by means of Accutase (PAA Laboratories, #L11-007) (incubation with Accutase for 15 min at 37° C.). The cell count then present is determined using a CASY™ cell counter (TCC model, Schärfe System) in order subsequently to apply 20,000 cells/well/100 μl of the described nutrient medium to 96-well measuring plates of the Corning™ CellBIND™ type (Flat Clear Bottom Black Polystyrene Microplates, #3340). Incubation is then carried out for one hour at room temperature, without gassing or adjusting the humidity, followed by incubation for 24 hours at 37° C., 5% CO2 and 95% humidity.
The voltage-sensitive fluorescent dye from the Membrane Potential Assay Kit (Red™ Bulk format part R8123 for FLIPR, Molecular Devices™) is prepared by dissolving the contents of a vessel Membrane Potential Assay Kit Red Component A in 200 ml of extracellular buffer (ES buffer, 120 mM NaCl, 1 mM KCl, 10 mM HEPES, 2 mM CaCl2, 2 mM MgCl2, 10 mM glucose; pH 7.4). After removal of the nutrient medium, the cells are washed with 200 μl of ES buffer, then covered with a layer of 100 μl of the dye solution prepared above and incubated for 45 min at room temperature with the exclusion of light.
The fluorescence measurements are carried out with a BMG Labtech FLUOstar™ or BMG Labtech POLARstar™ instrument (525 nm excitation, 560 nm emission, Bottom Read mode). After incubation of the dye, […] of the test substances in the desired concentrations, or 50 μl of ES buffer for control purposes, are introduced into separate cavities of the measuring plate and incubated for 30 min at room temperature while being shielded from light. The fluorescence intensity of the dye is then measured for 5 min and the fluorescence value F1 of each well is thus determined at a given, constant time. 15 μl of a […] KCl solution ([…]) are then added to each well. The change in fluorescence is subsequently measured until all the relevant measured values have been obtained (mainly 5-30 min). At a given time after KCl application, a fluorescence value F2 is determined, in this case at the time of the fluorescence peak.
For calculation, the fluorescence intensity F2 is compared with the fluorescence intensity F1, and the agonistic activity of the target compound on the potassium channel is determined therefrom. F2 and F1 are calculated as follows:
[formula] In order to determine whether a substance has an agonistic effect,
[formula] for example, can be compared with
[formula] determined by adding to the reaction batch only the buffer solution instead of the substance to be tested, determining the value F1K of the fluorescence intensity, adding the potassium ions as described above and measuring a value F2K of the fluorescence intensity. Then F2K and F1K are calculated as follows: […]
A substance has an agonistic activity on the potassium channel when
[formula] is greater than
[formula] Independently of the comparison of
[formula] it is also possible to conclude that a target compound has agonistic activity if an increase in
[formula] is to be observed as the dosage of the target compound increases. Calculations of EC50 and IC50 values are carried out with the aid of “Prism 4” software (GraphPad Software™). The following compounds were tested by way of example: […]

SMILES | EC50
O=C(CCC(=O)N1CCn2cccc2C1c1ccccc1)NCc1cccs1 (centres unmarked) [Example 83, 4-oxo-4-(1-phenyl-3,4-dihydropyrrolo[1,2-a]pyrazin-2(1H)-yl)-N-(thiophen-2-ylmethyl)butanamide] | 14.3 µM
O=C(CC(=O)N1CCn2cccc2C1c1ccccc1)NCc1cccc(C(F)(F)F)c1 (centres unmarked) [Example 89, 3-oxo-3-(1-phenyl-3,4-dihydropyrrolo[1,2-a]pyrazin-2(1H)-yl)-N-(3-(trifluoromethyl)benzyl)propanamide] | 4.55 µM
O=C(CN1CCn2cccc2C1c1ccc2c(c1)OCCO2)NCc1cccc(C(F)(F)F)c1 (centres unmarked) [Example 8, 2-[1-(2,3-dihydro-benzo[1,4]dioxin-6-yl)-3,4-dihydro-1H-pyrrolo[1,2-a]pyrazin-2-yl]-N-(3-trifluoromethyl-benzyl)-acetamide] | 2.97 µM

Next, values leading:

EC50 | SMILES
11.6 µM | CC1c2cccn2CCN1C(=O)CCC(=O)NCc1cccc(C(F)(F)F)c1 (centres unmarked) [Example 86, 4-(1-methyl-3,4-dihydropyrrolo[1,2-a]pyrazin-2(1H)-yl-4-oxo-N-(3-trifluoromethyl)benzyl)butanamide]
5.28 µM | CC(NC(=O)CCC(=O)N1CCn2cccc2C1c1cccs1)c1cccc(C(F)(F)F)c1 (centres unmarked) [Example 82, 4-oxo-4-(1-(thiophen-2-yl)-3,4-dihydropyrrolo[1,2-a]pyrazin-2(1H)-yl)-N-(1-(3-(trifluoromethyl)phenyl)ethyl)butanamide]
2.95 µM | CC(NC(=O)CCC(=O)N1CCn2cccc2C1c1ccccc1)c1cccc(C(F)(F)F)c1 (centres unmarked) [Example 81, 4-oxo-4-(1-phenyl-3,4-dihydropyrrolo[1,2-a]pyrazin-2(1H)-yl)-N-(1-(3-(trifluoromethyl)phenyl)ethyl)butanamide]

Same assay, conditions: agonistic activity at 10 μM, CHO-K1 cells expressing KCNQ2/3; read-out: BMG AG %@10 μm

SMILES | activation at 10 µM
Cc1ccc(C2c3cccn3CCN2CC(=O)NCc2cccc(C(F)(F)F)c2)cc1 (centres unmarked) [Example 37, 2-(1-p-tolyl-3,4-dihydro-1H-pyrrolo[1,2-a]pyrazin-2-yl)-N-(3-trifluoromethyl-benzyl)-acetamide] | 24%
COc1cccc(C2c3cccn3CCN2CC(=O)NCc2cccc(C(F)(F)F)c2)c1 (centres unmarked) [Example 20, 2-(1-(3-methoxyphenyl)-3,4-dihydropyrrolo[1,2-a]pyrazin-2(1H)-yl)-N-(3-(trifluoromethyl)benzyl)acetamide] | 21%
O=C(CC(=O)N1CCn2cccc2C1c1ccccc1)Nc1cccc(C(F)(F)F)c1 (centres unmarked) [Example 90] | -20%
O=C(CCCc1ccccc1)NCC(=O)N1CCn2cccc2C1c1ccccc1 (centres unmarked) [Example 88, N-(2-oxo-2-(1-phenyl-3,4-dihydropyrrolo[1,2-a]pyrazin-2(1H)-yl)ethyl)-4-phenylbutanamide] | 5%
O=C(CN1CCn2cccc2C1c1ccccc1)NCc1cccc(C(F)(F)F)c1 (centres unmarked) [Example 91, 2-(1-phenyl-3,4-dihydropyrrolo[1,2-a]pyrazin-2(1H)-yl)-N-(3-(trifluoromethyl)benzyl)acetamide] | 9%
O=C(CCc1cccc(C(F)(F)F)c1)NCC(=O)N1CCn2cccc2C1c1ccccc1 (centres unmarked) [Example 87] | 3%
O=C(/C=C/c1ccccc1F)NCC(=O)N1CCn2cccc2C1c1ccccc1 (centres unmarked) [Example 92, (E)-3-(2-fluorophenyl)-N-(2-oxo-2-(1-phenyl-3,4-dihydropyrrolo[1,2-a]pyrazin-2(1H)-yl)ethyl)acrylamide] | 7%
CC1c2cccn2CCN1C(=O)CCC(=O)NCc1ccc(F)cc1 (centres unmarked) [Example 85, N-(4-fluorobenzyl)-4-(1-methyl-3,4-dihydropyrrolo[1,2-a]pyrazin-2(1H)-yl)-4-oxobutanamide] | 0%

Second part, the molecule after the results:

activation at 10 µM | SMILES
69% | O=C(CCC(=O)N1CCn2cccc2C1c1ccc(Cl)cc1)NCc1cccc(C(F)(F)F)c1 (centres unmarked) [Example 1, 4-[1-(4-chloro-phenyl)-3,4-dihydro-1H-pyrrolo[1,2-a]pyrazin-2-yl]-4-oxo-N-(3-trifluoromethyl-benzyl)-butyramide]
10% | CC(NC(=O)CCC(=O)N1CCn2cccc2C1Cc1ccccc1)c1cccc(C(F)(F)F)c1 (centres unmarked) [Example 80, 4-(1-benzyl-3,4-dihydropyrrolo[1,2-a]pyrazin-2(1H)-yl)-4-oxo-N-(1-(3-(trifluoromethyl)phenyl)ethyl)butanamide]
28% | Cc1cccc(C2c3cccn3CCN2C(=O)CCC(=O)NCc2cccc(C(F)(F)F)c2)c1 (centres unmarked) [Example 5, 4-oxo-4-(1-m-tolyl-3,4-dihydro-1H-pyrrolo[1,2-a]pyrazin-2-yl)-N-(3-trifluoromethyl-benzyl)-butyramide]
